Assay results: the supplement of paper PMC10627819

Columns and labels:
B. subtilis 168 [1] = assay: fitness (endpoint OD595 vs no drug) (fraction); higher = more growth
Outline: (§1)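 In 384-well plates at 37 °C, cultures began at OD595 0.01 in 30 µl, with 55 µl used for S. pneumoniae. OD595 readings every 30 min for 14 h were corrected by the first reading. Fitness divides the stationary-phase transition optical density by the robust mean of no-drug control wells. The result is capped at 1.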

S. pneumoniae D39V [2] = assay: as above
Outline: as §1

S. aureus Newman [3] = assay: as above
Outline: as §1

S. aureus DSM 20231 = assay: Bliss interaction score (quartile over a dose matrix) (fitness difference); higher = more antagonism (negative = synergy)
Outline: (§2)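 Each OD595 reading at entry into stationary phase was scaled to the robust mean of the untreated wells on its plate, with a ceiling of 1. These ratios define fitness, and single-drug fitness was inferred from combinations. The Bliss score compares observed fitness with the product-based expectation and is reported as quartiles across all replicate types, technical, biological and donor/recipient.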

B. subtilis 168 [4] = assay: as above
Outline: as §2

S. pneumoniae D39V [5] = assay: as above
Outline: as §2

S. aureus Newman [6] = assay: as above
Outline: as §2
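Throughout, for Bliss interaction score (quartile over a dose matrix): first quartile when negative (synergy) and third quartile when positive (antagonism).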
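Throughout, for fitness (endpoint OD595 vs no drug): OD595 on entry to stationary phase over no-drug wells; at most 1.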

CNC(C)C1CCC(N)C(OC2C(N)CC(N)C(OC3OCC(C)(O)C(NC)C3O)C2O)O1 (stereo not given) [Gentamicin] + COc1c(N2C[C@@H]3CCCN[C@@H]3C2)c(F)cc2c(=O)c(C(=O)O)cn(C3CC3)c12 [Moxifloxacin]
main component drawn
Details	fitness
B. subtilis 168 [1], first compound 0.0625 µg/mL, partner 0.0625 µg/mL	0.0368
B. subtilis 168 [1], first compound 0.0625 µg/mL, partner 0.125 µg/mL	0.048
B. subtilis 168 [1], first compound 0.0625 µg/mL, partner 2 µg/mL	0.0515
B. subtilis 168 [1], first compound 0.0625 µg/mL, partner 4 µg/mL	0.0389
B. subtilis 168 [1], first compound 0.0625 µg/mL, partner 8 µg/mL	0.0196
B. subtilis 168 [1], first compound 0.125 µg/mL, partner 0.0625 µg/mL	0.0582
B. subtilis 168 [1], first compound 0.125 µg/mL, partner 0.125 µg/mL	0.0573
B. subtilis 168 [1], first compound 0.125 µg/mL, partner 2 µg/mL	0.0401
B. subtilis 168 [1], first compound 0.125 µg/mL, partner 4 µg/mL	0.0418
B. subtilis 168 [1], first compound 0.125 µg/mL, partner 8 µg/mL	0.0222
B. subtilis 168 [1], first compound 0.25 µg/mL, partner 0.0312 µg/mL	0.0645
B. subtilis 168 [1], first compound 0.25 µg/mL, partner 0.0625 µg/mL	0.069
B. subtilis 168 [1], first compound 0.25 µg/mL, partner 0.125 µg/mL	0.069
B. subtilis 168 [1], first compound 0.25 µg/mL, partner 2 µg/mL	0.0498
B. subtilis 168 [1], first compound 0.25 µg/mL, partner 4 µg/mL	0.0517
B. subtilis 168 [1], first compound 0.25 µg/mL, partner 8 µg/mL	0.0301
S. aureus Newman [3], first compound 0.375 µg/mL, partner 0.0075 µg/mL	0.733
S. aureus Newman [3], first compound 0.375 µg/mL, partner 0.015 µg/mL	0.515
S. aureus Newman [3], first compound 0.375 µg/mL, partner 0.03 µg/mL	0.153
S. aureus Newman [3], first compound 0.5 µg/mL, partner 0.0075 µg/mL	0.801
S. aureus Newman [3], first compound 0.5 µg/mL, partner 0.015 µg/mL	0.74
S. aureus Newman [3], first compound 0.75 µg/mL, partner 0.0075 µg/mL	0.722
S. aureus Newman [3], first compound 0.75 µg/mL, partner 0.015 µg/mL	0.544
S. aureus Newman [3], first compound 0.75 µg/mL, partner 0.03 µg/mL	0.189
S. aureus Newman [3], first compound 1 µg/mL, partner 0.0075 µg/mL	0.841
S. aureus Newman [3], first compound 1 µg/mL, partner 0.015 µg/mL	0.776
S. aureus Newman [3], first compound 1.5 µg/mL, partner 0.015 µg/mL	0.195
S. aureus Newman [3], first compound 1.5 µg/mL, partner 0.03 µg/mL	0.0456
S. aureus Newman [3], first compound 2 µg/mL, partner 0.0075 µg/mL	0.879
S. aureus Newman [3], first compound 2 µg/mL, partner 0.015 µg/mL	0.777
S. pneumoniae D39V [2], first compound 2 µg/mL, partner 0.005 µg/mL	≥ 1
S. pneumoniae D39V [2], first compound 2 µg/mL, partner 0.01 µg/mL	0.987
S. pneumoniae D39V [2], first compound 2 µg/mL, partner 0.02 µg/mL	0.949
S. pneumoniae D39V [2], first compound 2 µg/mL, partner 0.0312 µg/mL	0.0909
S. pneumoniae D39V [2], first compound 2 µg/mL, partner 0.0625 µg/mL	0.0352
S. pneumoniae D39V [2], first compound 2 µg/mL, partner 0.125 µg/mL	0.0208
S. pneumoniae D39V [2], first compound 4 µg/mL, partner 0.005 µg/mL	0.999
S. pneumoniae D39V [2], first compound 4 µg/mL, partner 0.01 µg/mL	0.998
S. pneumoniae D39V [2], first compound 4 µg/mL, partner 0.02 µg/mL	0.987
S. pneumoniae D39V [2], first compound 4 µg/mL, partner 0.0312 µg/mL	0.062
S. pneumoniae D39V [2], first compound 4 µg/mL, partner 0.0625 µg/mL	0.0383
S. pneumoniae D39V [2], first compound 4 µg/mL, partner 0.125 µg/mL	0.0445
S. pneumoniae D39V [2], first compound 8 µg/mL, partner 0.005 µg/mL	0.972
S. pneumoniae D39V [2], first compound 8 µg/mL, partner 0.01 µg/mL	0.972
S. pneumoniae D39V [2], first compound 8 µg/mL, partner 0.02 µg/mL	0.925
S. pneumoniae D39V [2], first compound 8 µg/mL, partner 0.0312 µg/mL	0.0628
S. pneumoniae D39V [2], first compound 8 µg/mL, partner 0.0625 µg/mL	0.0435
S. pneumoniae D39V [2], first compound 8 µg/mL, partner 0.125 µg/mL	0.0398

main component drawn
Details	Bliss interaction score
B. subtilis 168 [4]	0.0561
S. aureus DSM 20231	0.0845
S. aureus Newman [6]	0.0666
S. pneumoniae D39V [5]	-0.0566

Cc1onc(-c2ccccc2)c1C(=O)N[C@@H]1C(=O)N2[C@@H]1SC(C)(C)[C@@H]2C(=O)O [Oxacillin] + CN(C)c1cc(NC(=O)CNC(C)(C)C)c(O)c2c1C[C@H]1C[C@H]3[C@H](N(C)C)C(O)=C(C(N)=O)C(=O)[C@@]3(O)C(O)=C1C2=O [Tigecycline]
Details	fitness
B. subtilis 168 [1], first compound 0.002 µg/mL, partner 0.039 µg/mL	≥ 1
B. subtilis 168 [1], first compound 0.002 µg/mL, partner 0.078 µg/mL	0.976
B. subtilis 168 [1], first compound 0.002 µg/mL, partner 0.156 µg/mL	0.992
B. subtilis 168 [1], first compound 0.004 µg/mL, partner 0.039 µg/mL	0.963
B. subtilis 168 [1], first compound 0.004 µg/mL, partner 0.078 µg/mL	0.943
B. subtilis 168 [1], first compound 0.004 µg/mL, partner 0.156 µg/mL	0.95
B. subtilis 168 [1], first compound 0.008 µg/mL, partner 0.039 µg/mL	0.998
B. subtilis 168 [1], first compound 0.008 µg/mL, partner 0.078 µg/mL	0.945
B. subtilis 168 [1], first compound 0.008 µg/mL, partner 0.156 µg/mL	0.962
S. aureus Newman [3], first compound 0.0156 µg/mL, partner 0.039 µg/mL	0.794
S. aureus Newman [3], first compound 0.0156 µg/mL, partner 0.078 µg/mL	0.798
S. aureus Newman [3], first compound 0.0156 µg/mL, partner 0.156 µg/mL	0.778
S. aureus Newman [3], first compound 0.0312 µg/mL, partner 0.039 µg/mL	0.751
S. aureus Newman [3], first compound 0.0312 µg/mL, partner 0.078 µg/mL	0.762
S. aureus Newman [3], first compound 0.0312 µg/mL, partner 0.156 µg/mL	0.745
S. aureus Newman [3], first compound 0.0625 µg/mL, partner 0.039 µg/mL	0.641
S. aureus Newman [3], first compound 0.0625 µg/mL, partner 0.078 µg/mL	0.663
S. aureus Newman [3], first compound 0.0625 µg/mL, partner 0.156 µg/mL	0.688
S. pneumoniae D39V [2], first compound 0.01 µg/mL, partner 0.65 µg/mL	0.928
S. pneumoniae D39V [2], first compound 0.01 µg/mL, partner 1.3 µg/mL	0.951
S. pneumoniae D39V [2], first compound 0.01 µg/mL, partner 2.6 µg/mL	0.957
S. pneumoniae D39V [2], first compound 0.02 µg/mL, partner 0.65 µg/mL	0.904
S. pneumoniae D39V [2], first compound 0.02 µg/mL, partner 1.3 µg/mL	0.891
S. pneumoniae D39V [2], first compound 0.02 µg/mL, partner 2.6 µg/mL	0.875
S. pneumoniae D39V [2], first compound 0.04 µg/mL, partner 1.3 µg/mL	0.463
S. pneumoniae D39V [2], first compound 0.04 µg/mL, partner 2.6 µg/mL	0.531

fitness, B. subtilis 168 [1], one replicate
Details	first compound 0.0078 µg/mL	first compound 0.0155 µg/mL	first compound 0.031 µg/mL	first compound 0.075 µg/mL	first compound 0.15 µg/mL	first compound 0.3 µg/mL
partner 0.039 µg/mL	–	–	–	0.507	0.0264	0.0457
partner 0.078 µg/mL	–	–	–	0.549	0.0459	0.0479
partner 0.125 µg/mL	≥ 1	0.964	0.968	–	–	–
partner 0.156 µg/mL	–	–	–	0.607	0.049	0.0616
partner 0.25 µg/mL	0.962	≥ 1	0.923	–	–	–
partner 0.5 µg/mL	≥ 1	0.976	0.857	–	–	–

Details	Bliss interaction score
B. subtilis 168 [4]	0.0355
S. aureus DSM 20231	-0.0365
S. aureus Newman [6]	0.0567
S. pneumoniae D39V [5]	0.0953
